# Assay results reported in paper PMC10573254, “Development of Novel Class of Phenylpyrazolo[3,4-d]pyrimidine-Based Analogs with Potent Anticancer Activity and Multitarget Enzyme Inhibition Supported by Docking Studies” (International Journal of Molecular Sciences, 2023).
# Read-outs that look alike come from different tables or passages of the source.
# Key:
# HePG-2 = assay: MTT cytotoxicity assay, HePG-2; type: cell-based; settings: Homo sapiens, HepG2
# Method: (§1) The cytotoxic activity was assessed using the 3-(4,5-dimethylthiazol-2-yl)-2,5-diphenyl tetrazolium bromide (MTT) colorimetric assay, as reported previously. Doxorubicin was used as a reference standard, and DMSO was used as a negative control. Briefly, the designated cell lines were cultured at a concentration of 5 × 10^4 cell/well in 96-well plates. The cells were incubated for 24 h under optimum conditions. Following this, the designated molecules were introduced (in serial dilutions from 0 to 50 μg/mL), and the cells were incubated for an additional 24 h. Following this, the media were withdrawn, and 100 μL of fresh medium was added. Then, 10 µL of the 12 mM MTT stock solution was administered to each well. The plates were then incubated for 4 h. […] An 85-μL aliquot of the media was removed from the wells, and 50 µL of DMSO was added to each well and mixed thoroughly with the pipette and incubated at 37 °C for 10 min. Then, the optical density was measured at 590 nm with the microplate reader (Sunrise, TECAN, Inc., Morrisville, NC, USA).
# HCT-116 = assay: MTT cytotoxicity assay, HCT-116; type: cell-based; settings: Homo sapiens
# Method: (§5) The cytotoxic activity was assessed using the 3-(4,5-dimethylthiazol-2-yl)-2,5-diphenyl tetrazolium bromide (MTT) colorimetric assay, as reported previously [62, 63]. […] Briefly, the designated cell lines were cultured at a concentration of 5 × 10^4 cell/well in 96-well plates. The cells were incubated for 24 h under optimum conditions. Following this, the designated molecules were introduced (in serial dilutions from 0 to 50 μg/mL), and the cells were incubated for an additional 24 h. Following this, the media were withdrawn, and 100 μL of fresh medium was added. Then, 10 µL of the 12 mM MTT stock solution was administered to each well. The plates were then incubated for 4 h. Then, the cells were exposed to different compounds at the desired concentrations (0.01, 0.1, 1, 10, and 100 µM) or to 1% dimethyl sulfoxide (DMSO) for 48 and 72 h. […] Then, the optical density was measured at 590 nm with the microplate reader (Sunrise, TECAN, Inc., Morrisville, NC, USA).
# WI-38 = assay: MTT assay on normal cell line WI-38; type: cell-based; settings: normal human diploid fibroblasts
# Method: (§2) According to our design, the tested compounds are classified into four categories based on the length and the chemotype of the spacer (Figure 3). In the first category, we used monosubstituted hydrazone linker. […] The second category is represented by […] hydrazone linker.
# as §1
# Topo-II [1] = target: T1, Topo-II (Homo sapiens, UniProt Q02880); assay: In vitro Topo II inhibitory assay; type: biochemical; settings: for TOPO IiB %inh at conc 0.1: conc 0.1, unit not given; for TOPO IiB %inh at conc 1: conc 1, unit not given; for TOPO IiB %inh at conc 10: conc 10, unit not given; for TOPO IiB %inh at conc 100: conc 100, unit not given
# T1 construct: purchased
# Method: (§3) Curve fitting was performed using GraphPad Prism.
# (§4) (1 picture or pasted object on this page, not shown here)
# MCF-7 = assay: MTT cytotoxicity assay, MCF-7; type: cell-based; settings: Homo sapiens, MCF7
# Method: as §5
# VEGFR-2 = VEGFR-2 (Homo sapiens, UniProt P35968); assay: In vitro VEGFR2 enzyme inhibitory assay; type: biochemical; settings: for VEGFR2 %inh at conc 0.01: conc 0.01, unit not given; for VEGFR2 %inh at conc 0.1: conc 0.1, unit not given; for VEGFR2 %inh at conc 1: conc 1, unit not given; for VEGFR2 %inh at conc 10: conc 10, unit not given; for target selectivity index EGFR over VGFR-2: fold, EGFR^WT versus VGFR-2
# Method: as §3, §4
# [2] = system: MCF-7, HCT116, and HePG-2; assay: MTT assay against three malignant cell lines (summary); type: cell-based; settings: Homo sapiens, read-out: IC50 cytotoxicity (range over cell lines)
# Method: as §2, §1
# EGFR^WT = EGFR^WT (Homo sapiens, UniProt P00533); assay: In vitro EGFR enzyme inhibitory assay; type: biochemical; settings: for EGFR %inh at conc 0.01: conc 0.01, unit not given; for EGFR %inh at conc 0.1: conc 0.1, unit not given; for EGFR %inh at conc 1: conc 1, unit not given; for EGFR %inh at conc 10: conc 10, unit not given
# EGFR^T790M = EGFR^T790M (Homo sapiens, UniProt P00533, T790M); assay: In vitro EGFR T790M kinase inhibitory assay; settings: for EGFR T790M %inh at conc 0.01: conc 0.01 (conc.ng/ml); for EGFR T790M %inh at conc 0.1: conc 0.1 (conc.ng/ml); for EGFR T790M %inh at conc 1: conc 1 (conc.ng/ml); for EGFR T790M %inh at conc 10: conc 10 (conc.ng/ml)
# Method: The assays were conducted in Vacsera (Giza, Egypt). Curve fitting was performed using GraphPad Prism. Data are represented as means ± SD from three independent experiments.
# Assay : EGFR-T490M kinase assay
# Reader : Tecan-spark reader
# Kit used : BPS bioscience EGFR assay kit.
# MCF-7 cells [3] = assay: Annexin V-FITC/PI apoptosis assay; type: cell-based, human; settings: MCF-7, 3.81 μM
# Method: We used annexin V-binding studies via flow cytometer to confirm the apoptosis induction by our compound. The apoptotic nature of 5i against MCF-7 cells was tested via flow cytometry detection after double-staining with Annexin V-FITC and propidium iodide (PI).
# Annexin V-FITC apoptosis assay was conducted utilizing the Annexin V-FITC/PI double staining detection kit (BD Pharmingen, San Diego, CA, USA), as described elsewhere.
# MCF-7 cells [4] = assay: Cell cycle analysis (propidium iodide flow cytometry); type: cell-based, human; settings: MCF-7, 3.81 μM for 24 h (text: 1 μM)
# Topo-II [5] = assay: In vitro Topo II inhibitory assay; type: biochemical, Human; settings: fold, EGFR^WT versus Topo-II
# Method: as §3, §4
# [6] = 24 h incubation, read-out: IC50 HePG-2 24 h
# [7] = 48 h incubation, read-out: IC50 HePG-2 48 h
# [8] = 72 h incubation, read-out: IC50 HePG-2 72 h
# [9] = MTT, liver cancer cells, read-out: IC50 HePG-2
# [10] = HCT-116, read-out: IC50 HCT-116, MTT, colon cancer cells
# [11] = HCT-116, 24 h incubation, read-out: IC50 HCT116 24 h
# [12] = HCT-116, 48 h incubation, read-out: IC50 HCT116 48 h
# [13] = HCT-116, 72 h incubation, read-out: IC50 HCT116 72 h
# [14] = supplement lab report, Human DNA Topoisomerase 2B Kit, read-out: TOP2a IC50 (lab report) (converted)
# [15] = 24 h incubation, read-out: IC50 MCF-7 24 h
# [16] = 48 h incubation, read-out: IC50 MCF-7 48 h
# [17] = 72 h incubation, read-out: IC50 MCF-7 72 h
# [18] = MTT, breast cancer cells, read-out: IC50 MCF-7
# [19] = supplement lab report, read-out: VEGFR2 IC50 (lab report) (converted)
# [20] = supplement lab report, read-out: EGFR IC50 (lab report) (converted)
# Sequence of EGFR^T790M (P00533 25-1210 T790M): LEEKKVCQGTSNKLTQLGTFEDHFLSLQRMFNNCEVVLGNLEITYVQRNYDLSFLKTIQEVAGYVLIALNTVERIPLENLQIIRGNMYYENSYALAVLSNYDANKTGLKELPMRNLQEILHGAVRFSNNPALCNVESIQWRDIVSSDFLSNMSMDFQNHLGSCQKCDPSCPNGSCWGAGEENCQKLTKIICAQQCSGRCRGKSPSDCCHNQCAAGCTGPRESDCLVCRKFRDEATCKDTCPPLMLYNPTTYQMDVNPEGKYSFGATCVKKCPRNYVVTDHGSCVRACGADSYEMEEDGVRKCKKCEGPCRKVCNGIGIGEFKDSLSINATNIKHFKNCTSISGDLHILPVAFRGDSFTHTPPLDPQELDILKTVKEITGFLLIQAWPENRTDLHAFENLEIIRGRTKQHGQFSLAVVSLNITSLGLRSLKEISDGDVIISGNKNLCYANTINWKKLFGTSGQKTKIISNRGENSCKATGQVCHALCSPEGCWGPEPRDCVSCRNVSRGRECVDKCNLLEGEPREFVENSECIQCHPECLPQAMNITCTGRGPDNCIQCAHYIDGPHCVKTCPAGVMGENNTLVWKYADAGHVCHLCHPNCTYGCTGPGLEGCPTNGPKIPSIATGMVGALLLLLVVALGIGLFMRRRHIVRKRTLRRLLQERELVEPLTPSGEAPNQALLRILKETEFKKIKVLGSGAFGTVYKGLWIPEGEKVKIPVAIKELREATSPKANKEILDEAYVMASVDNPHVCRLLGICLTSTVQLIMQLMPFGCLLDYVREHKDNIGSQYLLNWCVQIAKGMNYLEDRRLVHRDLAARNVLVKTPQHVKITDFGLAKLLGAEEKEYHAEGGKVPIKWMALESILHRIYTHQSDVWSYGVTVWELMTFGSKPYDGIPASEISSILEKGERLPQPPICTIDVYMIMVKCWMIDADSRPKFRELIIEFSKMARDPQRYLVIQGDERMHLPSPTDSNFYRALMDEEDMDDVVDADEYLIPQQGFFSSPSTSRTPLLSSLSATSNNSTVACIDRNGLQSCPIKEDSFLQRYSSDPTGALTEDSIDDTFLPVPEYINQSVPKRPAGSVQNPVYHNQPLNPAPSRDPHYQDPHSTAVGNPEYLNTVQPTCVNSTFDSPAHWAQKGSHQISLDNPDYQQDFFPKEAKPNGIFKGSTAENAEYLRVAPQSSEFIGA
# Sequence of EGFR^WT (P00533 25-1210): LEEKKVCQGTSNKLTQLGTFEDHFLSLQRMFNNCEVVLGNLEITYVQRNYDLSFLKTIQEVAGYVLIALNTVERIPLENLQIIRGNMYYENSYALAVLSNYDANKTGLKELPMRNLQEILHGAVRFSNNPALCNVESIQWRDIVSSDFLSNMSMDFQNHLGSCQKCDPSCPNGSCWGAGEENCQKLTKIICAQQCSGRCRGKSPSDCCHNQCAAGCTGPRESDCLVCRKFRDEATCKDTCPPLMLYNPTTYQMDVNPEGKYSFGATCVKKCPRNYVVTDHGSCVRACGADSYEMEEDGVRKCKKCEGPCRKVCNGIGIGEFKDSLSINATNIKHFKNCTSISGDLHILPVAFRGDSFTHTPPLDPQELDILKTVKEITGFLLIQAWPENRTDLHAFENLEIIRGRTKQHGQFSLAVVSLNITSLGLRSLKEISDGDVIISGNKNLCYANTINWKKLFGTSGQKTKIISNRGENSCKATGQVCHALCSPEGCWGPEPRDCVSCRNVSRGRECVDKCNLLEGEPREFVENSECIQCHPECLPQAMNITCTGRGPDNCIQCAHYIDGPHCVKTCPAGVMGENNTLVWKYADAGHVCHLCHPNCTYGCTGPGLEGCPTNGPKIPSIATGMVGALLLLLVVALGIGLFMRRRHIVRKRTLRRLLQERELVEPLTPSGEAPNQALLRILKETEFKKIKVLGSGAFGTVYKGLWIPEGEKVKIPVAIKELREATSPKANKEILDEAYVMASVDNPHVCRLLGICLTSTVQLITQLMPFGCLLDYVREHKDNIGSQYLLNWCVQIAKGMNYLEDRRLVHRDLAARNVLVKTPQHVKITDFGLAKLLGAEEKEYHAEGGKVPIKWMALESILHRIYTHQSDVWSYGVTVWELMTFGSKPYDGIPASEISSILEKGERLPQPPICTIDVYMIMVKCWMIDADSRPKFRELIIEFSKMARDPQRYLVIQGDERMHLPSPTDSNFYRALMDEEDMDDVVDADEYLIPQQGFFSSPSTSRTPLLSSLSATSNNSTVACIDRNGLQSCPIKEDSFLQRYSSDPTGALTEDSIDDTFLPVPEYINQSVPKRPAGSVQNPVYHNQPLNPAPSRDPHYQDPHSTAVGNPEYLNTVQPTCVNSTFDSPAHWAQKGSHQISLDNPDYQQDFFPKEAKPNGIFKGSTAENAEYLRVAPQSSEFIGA
# T1 sequence (Q02880 2-1626): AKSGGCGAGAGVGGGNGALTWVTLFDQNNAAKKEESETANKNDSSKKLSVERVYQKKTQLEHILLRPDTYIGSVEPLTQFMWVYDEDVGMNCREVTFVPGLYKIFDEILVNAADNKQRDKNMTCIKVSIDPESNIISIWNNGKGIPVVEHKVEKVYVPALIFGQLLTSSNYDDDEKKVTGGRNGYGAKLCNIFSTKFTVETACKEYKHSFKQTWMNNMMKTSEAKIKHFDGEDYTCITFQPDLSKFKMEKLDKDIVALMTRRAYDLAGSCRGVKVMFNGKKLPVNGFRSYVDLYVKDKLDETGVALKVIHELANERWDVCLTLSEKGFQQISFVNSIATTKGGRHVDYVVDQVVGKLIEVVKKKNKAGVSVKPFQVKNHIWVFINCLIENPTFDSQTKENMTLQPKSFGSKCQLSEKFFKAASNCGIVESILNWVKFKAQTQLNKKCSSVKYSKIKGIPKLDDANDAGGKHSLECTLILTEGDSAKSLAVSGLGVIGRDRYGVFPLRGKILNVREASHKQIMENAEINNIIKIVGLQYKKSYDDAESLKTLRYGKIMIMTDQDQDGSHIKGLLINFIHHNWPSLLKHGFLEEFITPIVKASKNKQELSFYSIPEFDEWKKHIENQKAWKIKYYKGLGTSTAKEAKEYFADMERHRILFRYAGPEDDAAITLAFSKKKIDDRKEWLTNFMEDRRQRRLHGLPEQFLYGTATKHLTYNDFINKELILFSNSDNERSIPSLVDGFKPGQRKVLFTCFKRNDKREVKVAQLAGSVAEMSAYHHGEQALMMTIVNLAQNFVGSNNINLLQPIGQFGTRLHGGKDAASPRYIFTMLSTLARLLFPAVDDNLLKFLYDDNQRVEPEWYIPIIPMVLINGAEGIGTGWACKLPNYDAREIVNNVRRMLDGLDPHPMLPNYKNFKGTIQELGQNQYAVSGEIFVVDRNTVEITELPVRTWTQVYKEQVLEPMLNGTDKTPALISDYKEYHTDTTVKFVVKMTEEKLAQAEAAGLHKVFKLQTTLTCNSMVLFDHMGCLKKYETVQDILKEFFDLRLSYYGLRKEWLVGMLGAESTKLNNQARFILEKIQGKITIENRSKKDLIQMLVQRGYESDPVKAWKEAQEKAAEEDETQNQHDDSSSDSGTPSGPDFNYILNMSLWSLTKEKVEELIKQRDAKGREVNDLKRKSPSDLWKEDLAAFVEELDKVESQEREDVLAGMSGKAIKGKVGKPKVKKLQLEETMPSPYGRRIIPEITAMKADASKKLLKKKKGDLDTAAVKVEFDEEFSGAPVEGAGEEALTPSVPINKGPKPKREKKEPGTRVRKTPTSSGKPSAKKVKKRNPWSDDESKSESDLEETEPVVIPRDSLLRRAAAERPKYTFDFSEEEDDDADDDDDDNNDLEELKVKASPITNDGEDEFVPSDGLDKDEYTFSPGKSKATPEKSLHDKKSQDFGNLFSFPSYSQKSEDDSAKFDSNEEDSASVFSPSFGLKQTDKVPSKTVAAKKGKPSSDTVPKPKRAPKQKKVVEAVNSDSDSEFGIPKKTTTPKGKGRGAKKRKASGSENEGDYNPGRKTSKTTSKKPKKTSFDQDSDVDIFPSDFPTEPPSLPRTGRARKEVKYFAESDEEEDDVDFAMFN
structure (smiles),measurement,setting,value
"Cc1nc(NN=Cc2ccc(O)cc2)c2cnn(-c3ccccc3)c2n1 [Compound 5b, 4-((2-(6-Methyl-1-phenyl-1H-pyrazolo[3,4-d]pyrimidin-4-yl)hydrazineylidene)methyl)phenol]",IC50,HePG-2; [6],9.12 ± 0.7 µM
same,IC50,HePG-2; [7],7.6 ± 0.7 µM
same,IC50,HePG-2; [8],5.16 ± 0.4 µM
same,IC50,HePG-2; [9],9.12 ± 0.7 µM
same,IC50,HCT-116; [10],5.65 ± 0.3 µM
same,IC50,HCT-116; [11],5.65 ± 0.3 µM
same,IC50,HCT-116; [12],9.82 ± 0.9 µM
same,IC50,HCT-116; [13],4.09 ± 0.3 µM
same,IC50,"WI-38; Homo sapiens, WI-38, MTT",> 35 µM
same,IC50,WI-38; MTT,35 ± 0.3 µM
same,TOPO IiB %inh at conc 0.1,Topo-II [1],6.7%
same,TOPO IiB %inh at conc 1,Topo-II [1],12%
same,TOPO IiB %inh at conc 10,Topo-II [1],31%
same,TOPO IiB %inh at conc 100,Topo-II [1],66%
same,IC50,Topo-II [1]; read-out: IC50 Topo-II,108 ± 2.2 µM
same,IC50,Topo-II [1]; [14],108 µM
same,IC50,MCF-7; [15],10.5 ± 0.7 µM
same,IC50,MCF-7; [16],9.82 ± 0.9 µM
same,IC50,MCF-7; [17],5.16 ± 0.4 µM
same,IC50,MCF-7; [18],10.5 ± 0.7 µM
same,VEGFR2 %inh at conc 0.01,VEGFR-2,13%
same,VEGFR2 %inh at conc 0.1,VEGFR-2,25%
same,VEGFR2 %inh at conc 1,VEGFR-2,50%
same,VEGFR2 %inh at conc 10,VEGFR-2,70%
same,target selectivity index EGFR over VGFR-2,VEGFR-2,20
same,IC50,VEGFR-2; read-out: IC50 VGFR2,15.7 ± 0.32 µM
same,IC50,VEGFR-2; [19],15.7 µM
same,IC50,[2],3 to 10 µM
same,EGFR %inh at conc 0.01,EGFR^WT,28%
same,EGFR %inh at conc 0.1,EGFR^WT,46%
same,EGFR %inh at conc 1,EGFR^WT,71%
same,EGFR %inh at conc 10,EGFR^WT,87%
same,IC50,EGFR^WT; [20],0.366 µM
same,IC50,EGFR^T790M,1.93 ± 0.08 µM
same,EGFR T790M %inh at conc 0.01,EGFR^T790M,37%
same,EGFR T790M %inh at conc 0.1,EGFR^T790M,54%
same,EGFR T790M %inh at conc 1,EGFR^T790M,77%
same,EGFR T790M %inh at conc 10,EGFR^T790M,87%
same,melting point,,162 to 164 °C
"CC(=NNc1nc(C)nc2c1cnn2-c1ccccc1)c1ccccc1 [Compound 5i, 6-Methyl-1-phenyl-4-(2-(1-phenylethylidene)hydrazinyl)-1H-pyrazolo[3,4-d]pyrimidine]",Apoptosis Total,MCF-7 cells [3]; 24 h,36.06%
same,Necrosis,MCF-7 cells [3]; 24 h,4.33%
same,Apoptosis Early,MCF-7 cells [3]; 24 h (text: 48 h),12.62%
same,Apoptosis Late,MCF-7 cells [3]; 24 h (text: 48 h),19.11%
same,IC50,HePG-2; [6],6.38 ± 0.1 µM
same,IC50,HePG-2; [7],3.34 ± 0.2 µM
same,IC50,HePG-2; [8],2.42 ± 0.2 µM
same,IC50,HePG-2; [9],6.38 ± 0.1 µM
same,IC50,HCT-116; [10],4.38 ± 0.2 µM
same,IC50,HCT-116; [11],4.38 ± 0.2 µM
same,IC50,HCT-116; [12],4.01 ± 0.3 µM
same,IC50,HCT-116; [13],2.76 ± 0.3 µM
same,DNA content %G0-G1,MCF-7 cells [4],49.63%
same,DNA content %Pre-G1,MCF-7 cells [4],36.06%
same,DNA content %S,MCF-7 cells [4],43.12%
same,TOPO IiB %inh at conc 0.1,Topo-II [1],13%
same,TOPO IiB %inh at conc 1,Topo-II [1],27%
same,TOPO IiB %inh at conc 10,Topo-II [1],51%
same,TOPO IiB %inh at conc 100,Topo-II [1],74%
same,IC50,Topo-II [1]; read-out: IC50 Topo-II,24.7 ± 0.51 µM
same,IC50,Topo-II [1]; [14],24.7 µM
same,target selectivity index EGFR over Topo-II,Topo-II [5],66
same,IC50,MCF-7; [15],3.81 ± 0.3 µM
same,IC50,MCF-7; [16],3.34 ± 0.2 µM
same,IC50,MCF-7; [17],1.24 ± 0.3 µM
same,IC50,MCF-7; [18],3.81 ± 0.3 µM
same,VEGFR2 %inh at conc 0.01,VEGFR-2,7.5%
same,VEGFR2 %inh at conc 0.1,VEGFR-2,19%
same,VEGFR2 %inh at conc 1,VEGFR-2,58%
same,VEGFR2 %inh at conc 10,VEGFR-2,84%
same,target selectivity index EGFR over VGFR-2,VEGFR-2,20
same,IC50,VEGFR-2; read-out: IC50 VGFR2,7.6 ± 0.15 µM
same,IC50,VEGFR-2; [19],7.58 µM
same,IC50,[2],3 to 10 µM
same,EGFR %inh at conc 0.01,EGFR^WT,36%
same,EGFR %inh at conc 0.1,EGFR^WT,52%
same,EGFR %inh at conc 1,EGFR^WT,73%
same,EGFR %inh at conc 10,EGFR^WT,88%
same,IC50,EGFR^WT; [20],0.187 µM
same,IC50,EGFR^T790M,0.56 ± 0.04 µM
same,EGFR T790M %inh at conc 0.01,EGFR^T790M,37%
same,EGFR T790M %inh at conc 0.1,EGFR^T790M,50%
same,EGFR T790M %inh at conc 1,EGFR^T790M,76%
same,EGFR T790M %inh at conc 10,EGFR^T790M,89%
same,melting point,,245 to 247 °C
"Cc1nc(NNC(=S)Nc2ccccc2)c2cnn(-c3ccccc3)c2n1 [Compound 9e, 2-(6-Methyl-1-phenyl-1H-pyrazolo[3,4-d]pyrimidin-4-yl)-N-phenylhydrazinecarbothioamide]",IC50,HePG-2; [6],7.8 ± 0.4 µM
same,IC50,HePG-2; [7],8.28 ± 0.8 µM
same,IC50,HePG-2; [8],5.93 ± 0.5 µM
same,IC50,HePG-2; [9],7.8 ± 0.4 µM
same,IC50,HCT-116; [10],6.87 ± 0.5 µM
same,IC50,HCT-116; [11],6.87 ± 0.5 µM
same,IC50,HCT-116; [12],6.77 ± 0.4 µM
same,IC50,HCT-116; [13],5.55 ± 0.4 µM
same,IC50,"WI-38; Homo sapiens, WI-38, MTT",> 35 µM
same,IC50,WI-38; MTT,66 ± 0.23 µM
same,TOPO IiB %inh at conc 0.1,Topo-II [1],4%
same,TOPO IiB %inh at conc 1,Topo-II [1],16%
same,TOPO IiB %inh at conc 10,Topo-II [1],34%
same,TOPO IiB %inh at conc 100,Topo-II [1],65%
same,IC50,Topo-II [1]; read-out: IC50 Topo-II,24.6 ± 0.54 µM
same,IC50,Topo-II [1]; [14],24.6 µM
same,target selectivity index EGFR over Topo-II,Topo-II [5],31
same,IC50,MCF-7; [15],8.99 ± 0.5 µM
same,IC50,MCF-7; [16],8.16 ± 0.8 µM
same,IC50,MCF-7; [17],7.45 ± 0.7 µM
same,IC50,MCF-7; [18],8.99 ± 0.5 µM
same,VEGFR2 %inh at conc 0.01,VEGFR-2,14%
same,VEGFR2 %inh at conc 0.1,VEGFR-2,26%
same,VEGFR2 %inh at conc 1,VEGFR-2,46%
same,VEGFR2 %inh at conc 10,VEGFR-2,72%
same,target selectivity index EGFR over VGFR-2,VEGFR-2,21
same,IC50,VEGFR-2; read-out: IC50 VGFR2,16.2 ± 0.36 µM
same,IC50,VEGFR-2; [19],16.2 µM
same,IC50,[2],3 to 10 µM
same,EGFR %inh at conc 0.01,EGFR^WT,20%
same,EGFR %inh at conc 0.1,EGFR^WT,42%
same,EGFR %inh at conc 1,EGFR^WT,58%
same,EGFR %inh at conc 10,EGFR^WT,83%
same,IC50,EGFR^WT; read-out: IC50 EGFR^WT,0.77 ± 0.018 µM
same,IC50,EGFR^WT; [20],0.77 µM
same,melting point,,281 to 282 °C
